The values below come from publication PMC7366380, “Discovery of a Potent and Selective Covalent Inhibitor and Activity-Based Probe for the Deubiquitylating Enzyme UCHL1, with Antifibrotic Activity” (Journal of the American Chemical Society, 2020).

Molecules are shown by their SMILES. Where “and” joins values, the source holds several entries; their conditions need not be identical. Equal entries are not always repeated.

Common to all, as to assay: In-cell proteome-wide competitive ABPP, HEK293: other DUBs and proteins
Test [1] has as its target T1, DUBs and other proteins in HEK293 cells (Homo sapiens, UniProt P40818).
T1 sequence (P40818 1-1118): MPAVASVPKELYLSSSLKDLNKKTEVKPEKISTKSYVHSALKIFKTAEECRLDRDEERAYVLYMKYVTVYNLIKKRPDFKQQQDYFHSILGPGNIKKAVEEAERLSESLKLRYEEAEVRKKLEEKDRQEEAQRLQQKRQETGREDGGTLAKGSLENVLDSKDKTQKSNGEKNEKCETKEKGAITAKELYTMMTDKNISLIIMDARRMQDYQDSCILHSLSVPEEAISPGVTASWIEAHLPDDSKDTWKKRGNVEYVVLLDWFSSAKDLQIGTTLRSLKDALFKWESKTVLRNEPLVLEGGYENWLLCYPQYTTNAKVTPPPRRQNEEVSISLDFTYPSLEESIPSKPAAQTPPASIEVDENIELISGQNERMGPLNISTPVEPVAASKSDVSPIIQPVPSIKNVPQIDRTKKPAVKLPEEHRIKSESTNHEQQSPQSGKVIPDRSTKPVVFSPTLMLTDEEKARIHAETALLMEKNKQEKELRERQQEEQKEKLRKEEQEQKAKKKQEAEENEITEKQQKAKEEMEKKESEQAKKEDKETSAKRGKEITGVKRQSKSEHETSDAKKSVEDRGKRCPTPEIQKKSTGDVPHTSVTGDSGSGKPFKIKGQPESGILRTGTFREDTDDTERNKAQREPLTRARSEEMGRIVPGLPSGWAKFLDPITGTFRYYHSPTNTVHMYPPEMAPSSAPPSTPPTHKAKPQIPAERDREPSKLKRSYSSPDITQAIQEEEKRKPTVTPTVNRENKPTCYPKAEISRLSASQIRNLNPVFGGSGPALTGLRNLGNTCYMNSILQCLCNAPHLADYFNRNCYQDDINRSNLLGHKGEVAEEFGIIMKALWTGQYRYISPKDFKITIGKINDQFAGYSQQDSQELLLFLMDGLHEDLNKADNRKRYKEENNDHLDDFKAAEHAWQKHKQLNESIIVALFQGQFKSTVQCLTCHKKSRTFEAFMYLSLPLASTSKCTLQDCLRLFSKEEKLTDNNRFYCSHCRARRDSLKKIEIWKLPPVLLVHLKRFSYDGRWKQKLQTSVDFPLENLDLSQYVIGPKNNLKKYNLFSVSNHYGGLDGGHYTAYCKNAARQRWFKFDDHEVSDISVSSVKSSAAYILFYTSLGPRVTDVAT
The conditions noted are these: for Log2 reporter intensity values: USP8: competition with ABP 2, DMSO substract (FC), replicates A-B; for Log2 reporter intensity values: USP8, DMSO subtracted.

Test [2] deals with T2, DUBs and other proteins in HEK293 cells (Homo sapiens, UniProt Q9Y4E8).
T2 sequence (Q9Y4E8 1-981): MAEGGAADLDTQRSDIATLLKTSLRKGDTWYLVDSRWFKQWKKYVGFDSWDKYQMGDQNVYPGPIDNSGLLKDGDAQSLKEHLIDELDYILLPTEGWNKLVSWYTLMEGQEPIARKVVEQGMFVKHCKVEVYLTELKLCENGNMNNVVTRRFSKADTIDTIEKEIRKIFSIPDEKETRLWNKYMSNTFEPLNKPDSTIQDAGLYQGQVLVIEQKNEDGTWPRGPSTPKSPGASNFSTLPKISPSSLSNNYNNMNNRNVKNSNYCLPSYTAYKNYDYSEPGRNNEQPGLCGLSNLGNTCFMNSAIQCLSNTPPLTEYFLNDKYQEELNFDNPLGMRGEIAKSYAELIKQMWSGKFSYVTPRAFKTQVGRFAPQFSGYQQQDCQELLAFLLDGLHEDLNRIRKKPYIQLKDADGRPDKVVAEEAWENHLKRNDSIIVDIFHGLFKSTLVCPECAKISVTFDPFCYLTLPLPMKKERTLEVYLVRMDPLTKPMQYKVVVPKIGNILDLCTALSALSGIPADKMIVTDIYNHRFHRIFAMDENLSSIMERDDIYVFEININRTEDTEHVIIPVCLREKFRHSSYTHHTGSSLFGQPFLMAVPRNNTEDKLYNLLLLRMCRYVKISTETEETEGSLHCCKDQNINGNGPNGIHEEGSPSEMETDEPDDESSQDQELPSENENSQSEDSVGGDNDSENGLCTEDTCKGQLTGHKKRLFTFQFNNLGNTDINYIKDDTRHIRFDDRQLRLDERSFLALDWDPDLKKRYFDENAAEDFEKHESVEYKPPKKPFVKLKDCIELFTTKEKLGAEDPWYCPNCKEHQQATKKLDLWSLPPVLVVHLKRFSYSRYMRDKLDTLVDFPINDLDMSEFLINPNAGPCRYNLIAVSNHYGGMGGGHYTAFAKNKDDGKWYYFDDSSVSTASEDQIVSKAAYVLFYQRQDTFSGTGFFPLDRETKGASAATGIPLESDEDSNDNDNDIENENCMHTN
The note with it: replicates A-C; for Log2 reporter intensity values: USP15: DMSO substract (FC); for Log2 reporter intensity values: USP15, DMSO subtracted.

Test [3] addresses DUBs and other proteins in HEK293 cells (Homo sapiens, UniProt Q9Y5T5). The note with it: replicates A-C; for Log2 reporter intensity values: USP16: competition with ABP 2, DMSO substract (FC); for Log2 reporter intensity values: USP16, DMSO subtracted.

Chain of DUBs and other proteins in HEK293 cells (Homo sapiens, UniProt Q9Y5T5) (Q9Y5T5 whole entry): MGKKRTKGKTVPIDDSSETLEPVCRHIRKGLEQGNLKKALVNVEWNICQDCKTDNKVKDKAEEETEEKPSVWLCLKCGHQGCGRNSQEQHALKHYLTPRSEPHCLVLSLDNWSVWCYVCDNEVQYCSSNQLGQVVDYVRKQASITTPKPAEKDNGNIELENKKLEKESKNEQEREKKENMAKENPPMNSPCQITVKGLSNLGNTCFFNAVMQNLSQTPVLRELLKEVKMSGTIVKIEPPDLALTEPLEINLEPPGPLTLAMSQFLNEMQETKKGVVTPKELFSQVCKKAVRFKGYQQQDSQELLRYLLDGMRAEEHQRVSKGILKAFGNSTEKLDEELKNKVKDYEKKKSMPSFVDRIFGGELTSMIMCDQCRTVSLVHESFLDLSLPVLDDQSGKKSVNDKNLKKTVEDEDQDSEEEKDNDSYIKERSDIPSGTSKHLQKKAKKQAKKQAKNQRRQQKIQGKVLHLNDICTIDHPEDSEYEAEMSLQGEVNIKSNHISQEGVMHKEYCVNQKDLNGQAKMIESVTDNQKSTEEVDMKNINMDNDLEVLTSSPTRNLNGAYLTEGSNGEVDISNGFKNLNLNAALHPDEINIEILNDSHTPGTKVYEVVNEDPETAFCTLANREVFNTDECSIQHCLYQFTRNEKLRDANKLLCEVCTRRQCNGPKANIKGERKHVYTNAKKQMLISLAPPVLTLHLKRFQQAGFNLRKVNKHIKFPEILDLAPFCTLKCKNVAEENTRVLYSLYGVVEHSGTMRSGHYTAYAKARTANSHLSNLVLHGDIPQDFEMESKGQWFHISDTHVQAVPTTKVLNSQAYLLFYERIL

Consider `N#CN1CCC[C@H]1C(=O)N1CCc2c(-c3c[nH]c4ncccc34)cccc21` [Compound 1], for which the “Log2 reporter intensity values: USP8” value is 0.9851 and 0.9804 in test [1] (1 at 1 μM); 1.1 and 1.102 in test [1] (1 at 4 μM). In addition, the “Log2 reporter intensity values” in test [1] (1_1 μM, replicates A-B (C NaN)) was -0.01738 and -0.02201; in test [1] (1_4 μM, replicates A-B (C NaN)) it was 0.09749 and 0.0991; in test [1] (1 at 1 μM, replicates A-C), -0.0217 and -0.0285; in test [1] (1 at 4 μM, replicates A-C), 0.1374 and 0.1395; in test [2] (1_1 μM) it was -0.01164 and 0.02918 and 0.01631; in test [2] (1_4 μM), 0.09302 and 0.1906 and 0.04957. Also, the “Log2 reporter intensity values” in test [2] (1 at 1 μM) was -0.0165 and 0.04186 and 0.02371; in test [2] (1 at 4 μM), 0.1287 and 0.252 and 0.07016; in test [3] (1_1 μM), 0.01937 and 0.04439 and 0.01154; in test [3] (1_4 μM), 0.06901 and 0.2175 and 0.1444; in test [3] (1 at 1 μM), 0.03077 and 0.06568 and 0.01967; in test [3] (1 at 4 μM), 0.09923 and 0.2865 and 0.1974. Further, the “Log2 reporter intensity values: USP15” value in test [2] (1 at 1 μM, competition with ABP 2) was 0.9886 and 1.029 and 1.017; in test [2] (1 at 4 μM, competition with ABP 2), 1.093 and 1.191 and 1.05. Moreover, the “Log2 reporter intensity values: USP16” value in test [3] (1 at 1 μM) was 1.022 and 1.047 and 1.014; in test [3] (1 at 4 μM), 1.071 and 1.22 and 1.147.

Take `C#Cc1cnc2[nH]cc(-c3cccc4c3CCN4C(=O)[C@@H]3CCCN3C#N)c2c1` [Compound 2]: in test [2] (20 nM ABP 2 alone), the “Log2 reporter intensity values: USP15” value is 1.045 and 1.025 and 1.159. For the same compound, the “Log2 reporter intensity values” in test [2] (20 nM ABP 2) is 0.06335 and 0.03549 and 0.2127 and 0.04463 and 0.02465 and 0.1586.

For the compound `N#CN1CCC[C@@H]1C(=O)N1CCc2c(-c3c[nH]c4ncccc34)cccc21` [Compound 3], the “Log2 reporter intensity values: USP8” value is 0.95 and 1.134 in test [1] (3 at 1 μM); 0.8355 and 0.9159 in test [1] (3 at 4 μM). In addition, the “Log2 reporter intensity values” is -0.05241 and 0.1313 in test [1] (3_1 μM, replicates A-B (C NaN)); -0.167 and -0.08651 in test [1] (3_4 μM, replicates A-B (C NaN)); -0.07394 and 0.1811 in test [1] (3 at 1 μM, replicates A-C); -0.2593 and -0.1267 in test [1] (3 at 4 μM, replicates A-C); 0.09224 and 0.007674 and 0.06804 in test [2] (3_1 μM); 0.01634 and -0.02192 and 0.0187 in test [2] (3_4 μM). Moreover, the “Log2 reporter intensity values” is 0.1276 and 0.0114 and 0.09532 in test [2] (3 at 1 μM); 0.02376 and -0.03158 and 0.02709 in test [2] (3 at 4 μM); 0.03732 and 0.2403 and 0.1536 in test [3] (3_1 μM); 0.08611 and -0.09176 and 0.0368 in test [3] (3_4 μM); 0.0559 and 0.3132 and 0.2089 in test [3] (3 at 1 μM); 0.1221 and -0.1354 and 0.05518 in test [3] (3 at 4 μM). In addition, the “Log2 reporter intensity values: USP15” value in test [2] (3 at 1 μM, competition with ABP 2) is 1.093 and 1.008 and 1.068; in test [2] (3 at 4 μM, competition with ABP 2), 1.017 and 0.9783 and 1.019. Moreover, the “Log2 reporter intensity values: USP16” value in test [3] (3 at 1 μM) is 1.04 and 1.242 and 1.156; in test [3] (3 at 4 μM), 1.088 and 0.9104 and 1.039.
